Results taken from US9598423B2 (BRISTOL-MYERS SQUIBB COMPANY, priority 2013, dated 2017).

Experiments:
CK1ε = CK1ε (Homo sapiens (Human), UniProt P49674); assay: CK1ε kinase assay (Caliper LABCHIP electrophoretic separation of fluoresceinated peptide substrate and product); format: biochemical; conditions: 200 pM CK1ε, 50 μM ATP, 1.5 μM peptide substrate, 22 hours at room temperature; read-out: CK1ε (IC50)
Procedure: (§1) CK1ε and CK1δ Kinase Assays
(§2) The kinase assay was performed in V-bottom 384-well plates. […] The reaction was incubated at room temperature for 22 hours and terminated by adding 45 μl of 35 mM EDTA to each sample. The reaction mixture was analyzed on the Caliper LABCHIP®3000 (Caliper, Hopkinton, Mass.) by electrophoretic separation of the unphosphorylated substrate and phosphorylated product. […] Compounds were dissolved at 10 mM in dimethylsulfoxide (DMSO) and evaluated at eleven concentrations. IC50 values were derived by non-linear regression analysis.

CK1δ = CK1δ (Homo sapiens (Human), UniProt P48730); assay: CK1δ kinase assay (Caliper LABCHIP electrophoretic separation of fluoresceinated peptide substrate and product); format: biochemical; conditions: 200 pM CK1δ, 50 μM ATP, 1.5 μM peptide substrate, 22 hours at room temperature; read-out: CK1δ (IC50)
Chain of CK1δ (P48730 whole entry): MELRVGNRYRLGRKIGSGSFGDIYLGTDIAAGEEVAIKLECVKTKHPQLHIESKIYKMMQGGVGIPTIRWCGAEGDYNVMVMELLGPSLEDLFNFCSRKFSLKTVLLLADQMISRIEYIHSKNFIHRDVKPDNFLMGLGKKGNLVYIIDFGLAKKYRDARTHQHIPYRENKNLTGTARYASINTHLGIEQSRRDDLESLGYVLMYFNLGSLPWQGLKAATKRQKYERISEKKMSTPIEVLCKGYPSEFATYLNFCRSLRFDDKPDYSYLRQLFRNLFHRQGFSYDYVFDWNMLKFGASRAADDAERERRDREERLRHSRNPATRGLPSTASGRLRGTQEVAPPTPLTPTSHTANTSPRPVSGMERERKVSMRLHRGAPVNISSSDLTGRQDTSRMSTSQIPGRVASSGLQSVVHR
Procedure: as §1, §2

Chain of CK1ε (P49674 whole entry): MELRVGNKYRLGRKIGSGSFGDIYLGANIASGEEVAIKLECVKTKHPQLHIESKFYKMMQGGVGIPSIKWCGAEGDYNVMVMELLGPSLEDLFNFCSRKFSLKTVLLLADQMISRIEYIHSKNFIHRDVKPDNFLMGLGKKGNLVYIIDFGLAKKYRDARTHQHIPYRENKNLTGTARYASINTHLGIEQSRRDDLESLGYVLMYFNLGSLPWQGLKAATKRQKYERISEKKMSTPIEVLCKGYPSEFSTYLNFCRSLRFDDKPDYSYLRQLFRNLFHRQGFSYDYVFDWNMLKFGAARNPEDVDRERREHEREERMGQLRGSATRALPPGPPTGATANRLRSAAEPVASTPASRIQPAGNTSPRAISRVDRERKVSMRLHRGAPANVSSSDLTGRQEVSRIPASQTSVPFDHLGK

Compound	IC50 (CK1ε)	IC50 (CK1δ)
COc1cc(-c2nn3c(c2C(N)=O)CN(C(=O)Nc2ccc(C#N)cc2)CC3)ccc1F [Compound 280, N^5-(4-Cyanophenyl)-2-(4-fluoro-3-methoxyphenyl)-6,7-dihydropyrazolo[1,5-a] pyrazine-3,5(4H)-dicarboxamide]	0.01 to 10 nM	0.01 to 10 nM
NC(=O)c1c(-c2cccc(F)c2)nn2c1CN(C(=O)NCc1ccc(Cl)cc1Cl)CC2 [Compound 45, N^5-(2,4-Dichlorobenzyl)-2-(3-fluorophenyl)-6,7-dihydropyrazolo[1,5-a]pyrazine-3,5(4H)-dicarboxamide]	0.01 to 10 nM	0.01 to 10 nM
Cc1nc2cc(-c3nn4c(c3C(N)=O)CN(C(=O)Nc3ccc(C#N)c(F)c3)CC4)cc(Cl)c2o1 [Compound 314, 2-(7-Chloro-2-methylbenzo[d]oxazol-5-yl)-N^5-(4-cyano-3-fluorophenyl)-6,7-dihydropyrazolo[1,5-a]pyrazine-3,5(4H)-dicarboxamide]	0.01 to 10 nM	0.01 to 10 nM
CC(C)(C)C(=O)N1CCC(NC(=O)N2CCn3nc(-c4cccc(F)c4)c(C(N)=O)c3C2)CC1 [Compound 98, 2-(3-Fluorophenyl)-N^5-(1-pivaloylpiperidin-4-yl)-6,7-dihydropyrazolo[1,5-a]pyrazine-3,5(4H)-dicarboxamide]	0.01 to 10 nM	0.01 to 10 nM
CC12CC3CC(C)(C1)CC(NC(=O)N1CCn4nc(-c5cccc(F)c5)c(C(N)=O)c4C1)(C3)C2 [Compound 81, N^5-(3,5-Dimethyladamantan-1-yl)-2-(3-fluorophenyl)-6,7-dihydropyrazolo[1,5-a]pyrazine-3,5(4H)-dicarboxamide]	0.01 to 10 nM	0.01 to 10 nM
NC(=O)c1c(-c2cccc(Cl)c2)nn2c1CN(C(=O)Nc1cccc(F)c1)CC2 [Compound 167, 2-(3-Chlorophenyl)-N^5-(3-fluorophenyl)-6,7-dihydropyrazolo[1,5-a] pyrazine-3,5(4H)-dicarboxamide]	0.01 to 10 nM	0.01 to 10 nM
N#Cc1ccc(NC(=O)N2CCn3nc(-c4cc(Cl)cc(Cl)c4)c(C(N)=O)c3C2)cc1 [Compound 273, N^5-(4-Cyanophenyl)-2-(3,5-dichlorophenyl)-6,7-dihydropyrazolo[1,5-a] pyrazine-3,5(4H)-dicarboxamide]	0.01 to 10 nM	0.01 to 10 nM
NC(=O)c1c(-c2ccc(F)c(F)c2)nn2c1CN(C(=O)Nc1ccc3c(c1)OC(F)(F)O3)CC2 [Compound 232, N^5-(2,2-Difluorobenzo [d][1,3]dioxol-5-yl)-2-(3,4-difluorophenyl)-6,7-dihydropyrazolo [1,5-a]pyrazine-3,5(4H)-dicarboxamide]	0.01 to 10 nM	0.01 to 10 nM
N#Cc1ccc(NC(=O)N2Cc3c(C(N)=O)c(-c4ccc(F)c(Cl)c4)nn3CC2C2CC2)cc1 (stereo not shown) [Compound 341]	100 to 2000 nM	100 to 2000 nM
NC(=O)c1c(-c2cccc(F)c2)nn2c1CN(C(=O)Nc1ccc3ccccc3c1)CC2 [Compound 59, 2-(3-Fluorophenyl)-N^5-(naphthalen-2-yl)-6,7-dihydropyrazolo[1,5-a]pyrazine-3,5(4H)-dicarboxamide]	0.01 to 10 nM	0.01 to 10 nM
NC(=O)c1c(-c2cccc(Cl)c2)nn2c1CN(C(=O)Nc1cc(F)cc(F)c1)CC2 [Compound 169, 2-(3-Chlorophenyl)-N^5-(3,5-difluorophenyl)-6,7-dihydropyrazolo[1,5-a] pyrazine-3,5(4H)-dicarboxamide]	0.01 to 10 nM	0.01 to 10 nM
COc1cc(NC(=O)N2CCn3nc(-c4cccc(F)c4)c(C(N)=O)c3C2)ccc1C(F)(F)F [Compound 78, 2-(3-Fluorophenyl)-N^5-(3-methoxy-4-(trifluoromethyl)phenyl)-6,7-dihydropyrazolo[1,5-a]pyrazine-3,5(4H)-dicarboxamide]	0.01 to 10 nM	0.01 to 10 nM
NC(=O)c1c(-c2cccc(Cl)c2)nn2c1CN(C(=O)Nc1ccc(F)c(F)c1)CC2 [Compound 156, 2-(3-Chlorophenyl)-N^5-(3,4-difluorophenyl)-6,7-dihydropyrazolo[1,5-a]pyrazine-3,5(4H)-dicarboxamide]	0.01 to 10 nM	0.01 to 10 nM
NC(=O)c1c(-c2ccc(F)c(Cl)c2)nn2c1CN(C(=O)Nc1cccc(F)c1)CC2 [Compound 186, 2-(3-Chloro-4-fluorophenyl)-N^5-(3-fluorophenyl)-6,7-dihydropyrazolo[1,5-a] pyrazine-3,5(4H)-dicarboxamide]	0.01 to 10 nM	0.01 to 10 nM
Cc1cc(-c2nn3c(c2C(N)=O)CN(C(=O)Nc2ccc(C#N)c(Cl)c2)CC3)ccc1F [Compound 244, N^5-(3-Chloro-4-cyanophenyl)-2-(4-fluoro-3-methylphenyl)-6,7-dihydropyrazolo[1,5-a] pyrazine-3,5(4H)-dicarboxamide]	0.01 to 10 nM	0.01 to 10 nM
N#Cc1ccc(NC(=O)N2Cc3c(C(N)=O)c(-c4ccc(F)c(Cl)c4)nn3CC2C2CC2)cc1 (single isomer, unassigned) [Compound 342]	0.01 to 10 nM	0.01 to 10 nM
N#Cc1ccc(NC(=O)N2Cc3c(C(N)=O)c(-c4ccc(F)c(Cl)c4)nn3CC23CC3)cc1 [Compound 343, 2′-(3-Chloro-4-fluorophenyl)-N^5′-(4-cyanophenyl)-4′H-spiro[cyclopropane-1,6′-pyrazolo[1,5-a]pyrazine]-3′,5′(7′H)-dicarboxamide]	10 to 100 nM	10 to 100 nM
CN(C)C(=O)c1cccc(-c2nn3c(c2C(N)=O)CN(C(=O)Nc2ccc(C#N)cc2)CC3)c1 [Compound 283, N^5-(4-Cyanophenyl)-2-(3-(dimethylcarbamoyl)phenyl)-6,7-dihydropyrazolo[1,5-a] pyrazine-3,5(4H)-dicarboxamide]	100 to 2000 nM	100 to 2000 nM
N#Cc1ccc(NC(=O)N2CCn3nc(-c4ccc(Cl)c(Cl)c4)c(C(N)=O)c3C2)cc1C(F)(F)F [Compound 208, N^5-(4-Cyano-3-(trifluoromethyl)phenyl)-2-(3,4-dichlorophenyl)-6,7-dihydropyrazolo[1,5-a] pyrazine-3,5(4H)-dicarboxamide]	0.01 to 10 nM	0.01 to 10 nM
Cc1nc2cc(-c3nn4c(c3C(N)=O)CN(C(=O)Nc3ccc(C#N)c(C)c3)CC4)cc(Cl)c2o1 [Compound 313, 2-(7-Chloro-2-methylbenzo[d]oxazol-5-yl)-N^5-(4-cyano-3-methylphenyl)-6,7-dihydropyrazolo[1,5-a]pyrazine-3,5(4H)-dicarboxamide]	0.01 to 10 nM	0.01 to 10 nM
NC(=O)c1c(-c2cccc(Cl)c2)nn2c1CN(C(=O)Nc1ccc(Cl)nc1)CC2 [Compound 171, 2-(3-Chlorophenyl)-N^5-(6-chloropyridin-3-yl)-6,7-dihydropyrazolo[1,5-a] pyrazine-3,5(4H)-dicarboxamide]	0.01 to 10 nM	0.01 to 10 nM
NC(=O)c1c(-c2cccc(F)c2)nn2c1CN(C(=O)NC1CCN(CCC(F)(F)F)CC1)CC2 [Compound 103, 2-(3-Fluorophenyl)-N^5-(1-(3,3,3-trifluoropropyl)piperidin-4-yl)-6,7-dihydropyrazolo[1,5-a]pyrazine-3,5(4H)-dicarboxamide]	10 to 100 nM	0.01 to 10 nM
CC(C)OC(=O)N1CCC(NC(=O)N2CCn3nc(-c4cccc(F)c4)c(C(N)=O)c3C2)CC1 [Compound 100, Isopropyl 4-(3-carbamoyl-2-(3-fluorophenyl)-4,5,6,7-tetrahydropyrazolo[1,5-a]pyrazine-5-carboxamido)piperidine-1-carboxylate]	0.01 to 10 nM	0.01 to 10 nM
